# Data from US20160376605A1, “WHEAT PLANTS HAVING INCREASED TOLERANCE TO IMIDAZOLINONE HERBICIDES” (BASF SE, priority 2003, published 2016).
# How the values were obtained:
# Assay in all cases: Greenhouse Trial: plant injury rating, imazamox
# Type in all cases: in vivo, Durum wheat
# Durum line UT10 = conditions: 0-9 scale, 0 = no injury, 9 = plant death
# Protocol: (§1) Fifteen Durum lines, each derived from a different M2 plant, and two wild type durum lines were evaluated for tolerance to the imidazolinone herbicide imazamox at rates of 100 and 160 g/ha in a greenhouse trial. Evaluations of tolerance were made at 14 and 21 days after treatment. Injury was scored on a 0-9 scale, with 0 representing no injury and 9 plant death.
# Durum line UT12 = conditions: 0-9 scale, 0 = no injury, 9 = plant death
# Protocol: as §1
# Durum line UT17 = conditions: 0-9 scale, 0 = no injury, 9 = plant death
# Protocol: as §1
# [1] = test system: Wild Type Line UT (durum); conditions: for Average plant injury rating: Wild Type Line UT, 0-9 scale, 0 = no injury, 9 = plant death
# Protocol: as §1
# Durum line UTO3 = conditions: 0-9 scale, 0 = no injury, 9 = plant death
# Protocol: as §1
structure (smiles),measurement,setting,value
COCc1cnc(C2=NC(C)(C(C)C)C(=O)N2)c(C(=O)O)c1 (stereo not drawn) [imazamox],Average plant injury rating,"Durum line UT10; imazamox 100 g/ha, 14 DAT",5.8
same,Average plant injury rating,"Durum line UT10; imazamox 100 g/ha, 21 DAT",4.3
same,Average plant injury rating,"Durum line UT10; imazamox 160 g/ha, 14 DAT",6.5
same,Average plant injury rating,"Durum line UT10; imazamox 160 g/ha, 21 DAT",5.1
same,Average plant injury rating,"Durum line UT12; imazamox 100 g/ha, 14 DAT",4.8
same,Average plant injury rating,"Durum line UT12; imazamox 100 g/ha, 21 DAT",2.1
same,Average plant injury rating,"Durum line UT12; imazamox 160 g/ha, 14 DAT",5.7
same,Average plant injury rating,"Durum line UT12; imazamox 160 g/ha, 21 DAT",2.8
same,Average plant injury rating,"Durum line UT17; imazamox 100 g/ha, 14 DAT",4.1
same,Average plant injury rating,"Durum line UT17; imazamox 100 g/ha, 21 DAT",2.5
same,Average plant injury rating,"Durum line UT17; imazamox 160 g/ha, 14 DAT",4.7
same,Average plant injury rating,"Durum line UT17; imazamox 160 g/ha, 21 DAT",3.1
same,Average plant injury rating,"[1]; imazamox 100 g/ha, 14 DAT",8.9
same,Average plant injury rating,"[1]; imazamox 100 g/ha, 21 DAT",9.0
same,Average plant injury rating,"[1]; imazamox 160 g/ha, 14 DAT",9.0
same,Average plant injury rating,"[1]; imazamox 160 g/ha, 21 DAT",9.0
same,survival of wild type plants,"[1]; imazamox 100 and 160 g/ha, by 21 days after treatment",killed
same,Average plant injury rating,"Durum line UTO3; imazamox 100 g/ha, 14 DAT",4.8
same,Average plant injury rating,"Durum line UTO3; imazamox 100 g/ha, 21 DAT",2.2
same,Average plant injury rating,"Durum line UTO3; imazamox 160 g/ha, 14 DAT",5.2
same,Average plant injury rating,"Durum line UTO3; imazamox 160 g/ha, 21 DAT",2.8
